Measured values: US20150065717A1, “NIPECOTIC ACID DERIVATIVE AND USE THEREOF FOR MEDICAL PURPOSES” (Toray Industries, Inc., priority 2012, published 2015)
pIC50: −log10 of the molar value.

target: T1, recombinant human sEH (Homo sapiens, UniProt P34913); assay: In vitro evaluation test for sEH inhibitory activity; format: biochemical; conditions: recombinant human sEH 0.026 μg/mL, fluorescent substrate 6.25 μmol/L, room temperature
T1 construct: purchased Cayman
T1 sequence (P34913 1-555): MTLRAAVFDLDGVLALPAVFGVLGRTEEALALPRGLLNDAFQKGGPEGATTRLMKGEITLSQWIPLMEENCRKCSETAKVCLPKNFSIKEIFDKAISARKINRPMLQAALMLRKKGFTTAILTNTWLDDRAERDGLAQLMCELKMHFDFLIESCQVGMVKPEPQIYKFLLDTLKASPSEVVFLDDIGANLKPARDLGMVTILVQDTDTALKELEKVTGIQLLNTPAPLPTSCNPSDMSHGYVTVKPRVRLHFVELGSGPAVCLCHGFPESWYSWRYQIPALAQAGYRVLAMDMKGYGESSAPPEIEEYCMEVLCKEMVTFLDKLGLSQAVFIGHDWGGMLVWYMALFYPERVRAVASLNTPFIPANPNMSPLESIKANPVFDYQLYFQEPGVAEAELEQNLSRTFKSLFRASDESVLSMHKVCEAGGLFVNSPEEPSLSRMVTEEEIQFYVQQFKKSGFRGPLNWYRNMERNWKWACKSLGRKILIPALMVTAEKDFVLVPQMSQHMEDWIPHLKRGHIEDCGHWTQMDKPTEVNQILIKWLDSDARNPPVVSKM
Procedure: According to the method described in a known document (Analytical Biochemistry, 2005, vol. 343, p. 66-75), the sEH inhibitory activity of each nipecotic acid derivative (I) or a pharmaceutically acceptable salt thereof was evaluated using human sEH.
A recombinant human sEH (final concentration, 0.026 μg/mL; Cayman) was incubated with each test compound in 25 mM Bis-Tris-HCl buffer (pH 7.0) supplemented with 0.1 mg/mL BSA at room temperature for 30 minutes. Thereafter, cyano(6-methoxynaphthalen-2-yl)methyl 2-(3-phenyloxiran-2-yl)acetate (final concentration, 6.25 μmol/L; Cayman) was added thereto as a fluorescent substrate, and the resulting mixture was incubated at room temperature for 20 minutes. The reaction was then stopped by addition of ZnSO4 (final concentration, 0.2 mol/L), and the fluorescence intensity was measured (Fusion α (Packard); Excitation: 330 nm, Emission:485 nm).
The fluorescence intensity observed with addition of neither sEH nor a test compound was regarded as the sEH enzymatic reaction rate of 0%, and the fluorescence intensity observed with addition of sEH but without addition of a test compound was regarded as the sEH enzymatic reaction rate of 100%. From the obtained fluorescence intensity, the sEH enzymatic reaction rate of each test compound was calculated to determine IC50.

Structure (SMILES)	pIC50
O=C(Nc1ccc(C(F)(F)F)cn1)[C@@H]1CCCN(C(=O)C2(O)CCCCC2)C1 [Comparative Example Compound 1, (R)-1-(1-hydroxycyclohexanecarbonyl)-N-(5-(trifluoromethyl)pyridin-2-yl)piperidine-3-carboxamide, reference compound]	< 7.70
CC(=O)NCC(=O)N1CCC[C@@H](C(=O)NCc2ccc(C#N)cc2OC(F)(F)F)C1 [Comparative Example Compound 2, (R)-1-(2-acetamidoacetyl)-N-(4-cyano-2-(trifluoromethoxy)benzyl)piperidine-3-carboxamide, reference compound]	< 7.52
CS(=O)(=O)NC1(C(=O)N2CCC[C@@H](C(=O)NCc3ccc(C#N)cc3OC(F)(F)F)C2)CC1 [Example Compound 3, (R)—N-(4-cyano-2-(trifluoromethoxy)benzyl)-1-(1-(methylsulfonamido)cyclopropanecarbonyl)piperidine-3-carboxamide]	8.46
CC(=O)NC1(C(=O)N2CCC[C@@H](C(=O)NCc3ccc(C#N)cc3OC(F)(F)F)C2)CCCC1 [Example Compound 8, (R)-1-(1-acetamidocyclopentanecarbonyl)-N-(4-cyano-2-(trifluoromethoxy)benzyl)piperidine-3-carboxamide]	8.77
CC(=O)NC1(C(=O)N2CCC[C@@H](C(=O)NCc3ccc(C#N)cc3OC(F)(F)F)C2)CCC1 [Example Compound 9, (R)-1-(1-acetamidocyclobutanecarbonyl)-N-(4-cyano-2-(trifluoromethoxy)benzyl)piperidine-3-carboxamide]	8.21
CC(C)(NS(C)(=O)=O)C(=O)N1CCC[C@@H](C(=O)NCc2ccc(Cl)cc2OCC(F)(F)F)C1 [Example Compound 10, (R)—N-(4-chloro-2-(2,2,2-trifluoroethoxy)benzyl)-1-(2-methyl-2-(methylsulfonamido)propanoyl)piperidine-3-carboxamide]	8.59
CC(C)(NS(C)(=O)=O)C(=O)N1CCC[C@@H](C(=O)NCc2ccc(C(N)=O)cc2OC(F)(F)F)C1 [Example Compound 14, (R)—N-(4-carbamoyl-2-(trifluoromethoxy)benzyl)-1-(2-methyl-2-(methylsulfonamido)propanoyl)piperidine-3-carboxamide]	8.82
CS(=O)(=O)NC1(C(=O)N2CCC[C@@H](C(=O)NCc3ccc(C(N)=O)cc3OC(F)(F)F)C2)CC1 [Example Compound 15]	8.72
CC(C)(O)C(=O)N1CCC[C@@H](C(=O)NCc2ccc(C#N)cc2OC(F)(F)F)C1 [Example Compound 16, (R)—N-(4-cyano-2-(trifluoromethoxy)benzyl)-1-(2-hydroxy-2-methylpropanoyl)piperidine-3-carboxamide]	8.62
CN(C1(C(=O)N2CCC[C@@H](C(=O)NCc3ccc(C#N)cc3OC(F)(F)F)C2)CC1)S(C)(=O)=O [Example Compound 18, (R)—N-(4-cyano-2-(trifluoromethoxy)benzyl)-1-(1-(N-methylmethylsulfonamido)cyclopropanecarbonyl)piperidine-3-carboxamide]	8.80
N#Cc1ccc(CNC(=O)[C@@H]2CCCN(C(=O)C3(C#N)CC3)C2)c(OC(F)(F)F)c1 [Example Compound 23, (R)—N-(4-cyano-2-(trifluoromethoxy)benzyl)-1-(1-cyanocyclopropanecarbonyl)piperidine-3-carboxamide]	8.74
CC(=O)N[C@H](C)C(=O)N1CCC[C@@H](C(=O)NCc2ccc(C#N)cc2OC(F)(F)F)C1 [Example Compound 24, (R)-1-((R)-2-acetamidopropanoyl)-N-(4-cyano-2-(trifluoromethoxy)benzyl)piperidine-3-carboxamide]	8.60
C[C@@H](NS(C)(=O)=O)C(=O)N1CCC[C@@H](C(=O)NCc2ccc(C#N)cc2OC(F)(F)F)C1 [Example Compound 25, (R)—N-(4-cyano-2-(trifluoromethoxy)benzyl)-1-((R)-2-(methylsulfonamido)propanoyl)piperidine-3-carboxamide]	8.74
CC(C)C(=O)NC1(C(=O)N2CCC[C@@H](C(=O)NCc3ccc(C#N)cc3OC(F)(F)F)C2)CC1 [Example Compound 26, (R)—N-(4-cyano-2-(trifluoromethoxy)benzyl)-1-(1-isobutylamidocyclopropanecarbonyl)piperidine-3-carboxamide]	8.24
CC(C)(C)C(=O)NC1(C(=O)N2CCC[C@@H](C(=O)NCc3ccc(C#N)cc3OC(F)(F)F)C2)CC1 [Example Compound 27, (R)—N-(4-cyano-2-(trifluoromethoxy)benzyl)-1-(1-pivalamidocyclopropanecarbonyl)piperidine-3-carboxamide]	8.66

Now those with a higher pIC50, led by results:

pIC50	Structure (SMILES)
9.00	N#Cc1ccc(CNC(=O)[C@@H]2CCCN(C(=O)C3(C(F)(F)F)CC3)C2)c(OC(F)(F)F)c1 [Example Compound 4, (R)—N-(4-cyano-2-(trifluoromethoxy)benzyl)-1-(1-(trifluoromethyl)cyclopropanecarbonyl)piperidine-3-carboxamide]
9.00	CS(=O)(=O)NC1(C(=O)N2CCC[C@@H](C(=O)NCc3ccc(C#N)cc3OC(F)(F)F)C2)CCC1 [Example Compound 5, (R)—N-(4-cyano-2-(trifluoromethoxy)benzyl)-1-(1-(methylsulfonamido)cyclobutanecarbonyl)piperidine-3-carboxamide]
9.00	CC(C)C(=O)NC1(C(=O)N2CCC[C@@H](C(=O)NCc3ccc(C#N)cc3OC(F)(F)F)C2)CCC1 [Example Compound 6, (R)—N-(4-cyano-2-(trifluoromethoxy)benzyl)-1-(1-isobutylamidocyclobutanecarbonyl)piperidine-3-carboxamide]
9.10	CC(C)(C)C(=O)NC1(C(=O)N2CCC[C@@H](C(=O)NCc3ccc(C#N)cc3OC(F)(F)F)C2)CCC1 [Example Compound 7, (R)—N-(4-cyano-2-(trifluoromethoxy)benzyl)-1-(1-pivalamidocyclobutanecarbonyl)piperidine-3-carboxamide]
9.30	CC(=O)N[C@@H](C(=O)N1CCC[C@@H](C(=O)NCc2ccc(C#N)cc2OC(F)(F)F)C1)C(C)C [Example Compound 11, (R)-1-((R)-2-acetamido-3-methylbutanoyl)-N-(4-cyano-2-(trifluoromethoxy)benzyl)piperidine-3-carboxamide]
9.52	CC(C)[C@@H](NS(C)(=O)=O)C(=O)N1CCC[C@@H](C(=O)NCc2ccc(C#N)cc2OC(F)(F)F)C1 [Example Compound 12, (R)—N-(4-cyano-2-(trifluoromethoxy)benzyl)-1-((R)-3-methyl-2-(methylsulfonamido)butanoyl)piperidine-3-carboxamide]
8.85	CCS(=O)(=O)NC1(C(=O)N2CCC[C@@H](C(=O)NCc3ccc(C#N)cc3OC(F)(F)F)C2)CC1 [Example Compound 13, (R)—N-(4-cyano-2-(trifluoromethoxy)benzyl)-1-(1-(ethylsulfonamido)cyclopropanecarbonyl)piperidine-3-carboxamide]
8.96	CC(C)(C)C(=O)N1CCC[C@@H](C(=O)NCc2ccc(C#N)cc2OC(F)(F)F)C1 [Example Compound 17, (R)—N-(4-cyano-2-(trifluoromethoxy)benzyl)-1-pivaloylpiperidine-3-carboxamide]
8.89	CC(C)(CO)C(=O)N1CCC[C@@H](C(=O)NCc2ccc(C#N)cc2OC(F)(F)F)C1 [Example Compound 19, (R)—N-(4-cyano-2-(trifluoromethoxy)benzyl)-1-(3-hydroxy-2,2-dimethylpropanoyl)piperidine-3-carboxamide]
9.15	N#Cc1ccc(CNC(=O)[C@@H]2CCCN(C(=O)C3(O)CCCCC3)C2)c(OC(F)(F)F)c1 [Example Compound 20, (R)—N-(4-cyano-2-(trifluoromethoxy)benzyl)-1-(1-hydroxycyclohexanecarbonyl)piperidine-3-carboxamide]
9.05	CC[C@@H](NC(C)=O)C(=O)N1CCC[C@@H](C(=O)NCc2ccc(C#N)cc2OC(F)(F)F)C1 [Example Compound 21, (R)-1-((R)-2-acetamidobutanoyl)-N-(4-cyano-2-(trifluoromethoxy)benzyl)piperidine-3-carboxamide]
9.30	CC[C@@H](NS(C)(=O)=O)C(=O)N1CCC[C@@H](C(=O)NCc2ccc(C#N)cc2OC(F)(F)F)C1 [Example Compound 22, (R)—N-(4-cyano-2-(trifluoromethoxy)benzyl)-1-((R)-2-(methylsulfonamido)butanoyl)piperidine-3-carboxamide]
